Laboratory results reported in PMC2669305 (Assay and drug development technologies, 2008).

Biological target: T1, thioredoxin glutathione reductase (TGR) (Schistosoma mansoni, UniProt Q962Y6)
T1 sequence (Q962Y6 1-598): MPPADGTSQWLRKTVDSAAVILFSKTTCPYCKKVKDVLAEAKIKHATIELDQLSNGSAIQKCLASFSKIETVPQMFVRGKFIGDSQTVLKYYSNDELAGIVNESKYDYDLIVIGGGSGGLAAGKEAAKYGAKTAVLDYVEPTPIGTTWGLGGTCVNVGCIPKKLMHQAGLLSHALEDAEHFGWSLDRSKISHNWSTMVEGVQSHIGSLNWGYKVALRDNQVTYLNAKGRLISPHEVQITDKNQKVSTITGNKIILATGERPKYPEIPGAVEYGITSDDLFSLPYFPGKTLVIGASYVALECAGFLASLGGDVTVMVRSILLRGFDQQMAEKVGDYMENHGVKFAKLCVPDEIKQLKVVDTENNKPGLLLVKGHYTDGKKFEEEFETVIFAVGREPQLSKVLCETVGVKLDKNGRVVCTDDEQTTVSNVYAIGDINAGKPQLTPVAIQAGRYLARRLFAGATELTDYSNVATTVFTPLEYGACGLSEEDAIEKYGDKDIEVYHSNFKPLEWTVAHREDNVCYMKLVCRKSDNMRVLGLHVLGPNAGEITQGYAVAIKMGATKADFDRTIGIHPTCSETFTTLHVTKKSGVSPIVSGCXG
Assay type: biochemical

IC50: 4 to 7.9 µM
Structure (SMILES): N#Cc1c(-c2ccccc2)no[n+]1[O-] [furoxan, 4-phenyl-3-furoxancarbonitrile]
